# Non-standard residues stand in square brackets, D forms with d. Residues, ends and D or L forms follow the SMILES beside them.
# Experiments:
# [1] = test system: patients with early cirrhosis; details: cited from earlier work
# [2] = test system: patients with cirrhosis; details: administered through the hepatic artery, cited from earlier work
# [3] = test system: adult subjects with a history of cirrhosis and portal hypertension; test: Clinical study NCT03827200: portal pressure estimated by Hepatic Venous Pressure Gradient (HVPG); type: in vivo, human
# Description: (§1) In the context of a clinical study (ClinicalTrials.gov Identifier: NCT03827200), ambrisentan was administered to 8 adult subjects with a history of cirrhosis and portal hypertension. […] A liquid formulation of ambrisentan was used, consisting of a solution of propylene glycol:ethanol (50:50 w/w) and ambrisentan at a concentration of 5 mg/mL. The solution was reconstituted prior to administration in water or propylene glycol. All subjects were treated for 14 days. Portal pressure was estimated in this study by means of the Hepatic Vein Pressure Gradient (HVPG), the current gold standard to evaluate the degree of portal hypertension in adults with cirrhosis (as described in Bosch, J., Abraldes, J. G., Berzigotti, A., & Garcia-Pagan, J. C. (2009). The clinical use of HVPG measurements in chronic liver disease. Nature Reviews Gastroenterology & Hepatology, 6(10), 573-582). HVPG was measured at baseline and prior to the first administration of ambrisentan. Post-baseline values for HVPG were obtained at 90 minutes following the administration of the first dose of ambrisentan. After 14 days of treatment, HVPG was determined at trough (prior to the last dose) and 90 minutes following the last dose of ambrisentan. Two dose groups were evaluated in this study. In the high dose group, 4 subjects were administered 50 μg ambrisentan on day 1 subcutaneously, followed by 100 μg of ambrisentan twice a day orally for 13 days, for a total daily dose of 200 μg. On day 14, subjects in the high dose group received a final dose of 50 μg ambrisentan subcutaneously. In the low dose group, 4 subjects were administered 10 μg ambrisentan on day 1 subcutaneously, followed by 14 μg of ambrisentan once a day orally for 13 days. On day 14, subjects in the low dose group received a final dose of 10 μg ambrisentan subcutaneously.
# All subjects had portal hypertension as determined by HVPG at baseline (mean 19.7 mmHg, range 9-29 mmHg). […] An initial decrease in HVPG was apparent at 90 minutes post-administration in the low-dose group, and the reduction in HVPG was even larger at day 14 when compared to day 1 (Table 2).
# [4] = Pharmacokinetic analysis of ambrisentan plasma concentrations in the clinical study; type: in vivo, human; details: high dose group
# Description: as §1, with “In the high dose group, 4 subjects were administered 50 μg ambrisentan on day 1 subcutaneously, followed by 100 μg of ambrisentan twice a day orally for 13 days, for a total daily dose of 200 μg. On day 14, subjects in the high dose group received a final dose of 50 μg ambrisentan subcutaneously. In the low dose group, 4 subjects were administered 10 μg ambrisentan on day 1 subcutaneously, followed by 14 μg of ambrisentan once a day orally for 13 days. On day 14, subjects in the low dose group received a final dose of 10 μg ambrisentan subcutaneously.” left out
# [5] = test system: patient with portopulmonary hypertension; details: one case of portopulmonary hypertension; cited from earlier work
# [6] = test system: patients with portopulmonary hypertension; details: cited from earlier work
smiles,measurement,setting,value
CC(C)C[C@@H]1NC(=O)[C@@H](C(C)C)NC(=O)[C@@H]2CCCN2C(=O)[C@@H](CC(=O)O)NC(=O)[C@@H](Cc2c[nH]c3ccccc23)NC1=O [BQ-123] (cyclo(L[dW][dD]P[dV])),Acute reduction of portal pressure as assessed by HVPG,[1],did not show any acute reduction on portal pressure
same,Reduction of portal pressure as determined by HVPG,[2]; acute,18%
same,Hepatic artery blood flow,[2],significant increase
CCCC[C@@H](NC(=O)[C@@H](Cc1cn(C(=O)OC)c2ccccc12)NC(=O)[C@H](CC(C)(C)C)NC(=O)N1[C@H](C)CCC[C@@H]1C)C(=O)O [BQ-788],Acute reduction of portal pressure as assessed by HVPG,[1],did not show any acute reduction on portal pressure
COC(c1ccccc1)(c1ccccc1)[C@H](Oc1nc(C)cc(C)n1)C(=O)O [ambrisentan],"Change in HVPG from baseline, percent change, mean","[3]; dose group 10/14 μg, N=4, Day 1, 90 m after first dose",−6.4%
same,"Change in HVPG from baseline, percent change, mean","[3]; dose group 10/14 μg, N=4, Day 14, 90 m after last dose",−14.1%
same,"Change in HVPG from baseline, percent change, mean","[3]; dose group 10/14 μg, N=4, Day 14, trough (0 H)",−9.2%
same,"Change in HVPG from baseline, percent change, mean","[3]; dose group 50/200 μg, N=4, Day 1, 90 m after first dose",4.8%
same,"Change in HVPG from baseline, percent change, mean","[3]; dose group 50/200 μg, N=4, Day 14, 90 m after last dose",11.7%
same,"Change in HVPG from baseline, percent change, mean","[3]; dose group 50/200 μg, N=4, Day 14, trough (0 H)",9.2%
same,Steady-state trough ambrisentan plasma concentration,[4]; 100 μg twice daily orally for 13 days,about 10 ng/mL
same,concentration at 2 h,"[4]; human, plasma, subcutaneous, 50 μg at day 14, 2 hours post-administration",18 ng/mL
COc1ccccc1Oc1c(NS(=O)(=O)c2ccc(C(C)(C)C)cc2)nc(-c2ncccn2)nc1OCCO [bosentan],Portal pressure as measured by HVPG,[5],decrease
same,Pulmonary pressure,[5],decrease
CCCNS(=O)(=O)Nc1ncnc(OCCOc2ncc(Br)cn2)c1-c1ccc(Br)cc1 [macitentan],6-minute walking distance,[6],no effect
same,Portal pressure as determined by HVPG,[6],not showing a significant difference
